Reference: ChEMBL document CHEMBL1909046, “DrugMatrix in vitro pharmacology data”

Experiments:
[1] = biological target: 5-hydroxytryptamine receptor 4 (Cavia porcellus, UniProt O70528); type: cell membranes, Dunkin-Hartley, Striatum, Membrane; further: in other assays of this panel Not Active means under 50% inhibition at 10 µM
[2] = DRUGMATRIX: Phosphodiesterase PDE3 enzyme inhibition (substrate: [3H]cAMP + cAMP); type: tissue-based, Homo sapiens; details: platelet; Not Active = under 50% inhibition at 10 µM
[3] = DRUGMATRIX: Glutamate, NMDA, Phencyclidine radioligand binding (ligand: [3H] TCP); type: cell membranes, Rattus norvegicus, Wistar, Cerebral cortex, Membrane; details: Not Active = under 50% inhibition at 10 µM
[4] = biological target: T1, Angiotensin-converting enzyme (Oryctolagus cuniculus, UniProt P12822); assay: biochemical; type: tissue-based, Lung;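 further: enzymatic inhibition of angiotensin-converting enzyme measured with FAPGG as the substrate; in other assays of this panel Not Active means under 50% inhibition at 10 µM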
T1 sequence (P12822 whole entry): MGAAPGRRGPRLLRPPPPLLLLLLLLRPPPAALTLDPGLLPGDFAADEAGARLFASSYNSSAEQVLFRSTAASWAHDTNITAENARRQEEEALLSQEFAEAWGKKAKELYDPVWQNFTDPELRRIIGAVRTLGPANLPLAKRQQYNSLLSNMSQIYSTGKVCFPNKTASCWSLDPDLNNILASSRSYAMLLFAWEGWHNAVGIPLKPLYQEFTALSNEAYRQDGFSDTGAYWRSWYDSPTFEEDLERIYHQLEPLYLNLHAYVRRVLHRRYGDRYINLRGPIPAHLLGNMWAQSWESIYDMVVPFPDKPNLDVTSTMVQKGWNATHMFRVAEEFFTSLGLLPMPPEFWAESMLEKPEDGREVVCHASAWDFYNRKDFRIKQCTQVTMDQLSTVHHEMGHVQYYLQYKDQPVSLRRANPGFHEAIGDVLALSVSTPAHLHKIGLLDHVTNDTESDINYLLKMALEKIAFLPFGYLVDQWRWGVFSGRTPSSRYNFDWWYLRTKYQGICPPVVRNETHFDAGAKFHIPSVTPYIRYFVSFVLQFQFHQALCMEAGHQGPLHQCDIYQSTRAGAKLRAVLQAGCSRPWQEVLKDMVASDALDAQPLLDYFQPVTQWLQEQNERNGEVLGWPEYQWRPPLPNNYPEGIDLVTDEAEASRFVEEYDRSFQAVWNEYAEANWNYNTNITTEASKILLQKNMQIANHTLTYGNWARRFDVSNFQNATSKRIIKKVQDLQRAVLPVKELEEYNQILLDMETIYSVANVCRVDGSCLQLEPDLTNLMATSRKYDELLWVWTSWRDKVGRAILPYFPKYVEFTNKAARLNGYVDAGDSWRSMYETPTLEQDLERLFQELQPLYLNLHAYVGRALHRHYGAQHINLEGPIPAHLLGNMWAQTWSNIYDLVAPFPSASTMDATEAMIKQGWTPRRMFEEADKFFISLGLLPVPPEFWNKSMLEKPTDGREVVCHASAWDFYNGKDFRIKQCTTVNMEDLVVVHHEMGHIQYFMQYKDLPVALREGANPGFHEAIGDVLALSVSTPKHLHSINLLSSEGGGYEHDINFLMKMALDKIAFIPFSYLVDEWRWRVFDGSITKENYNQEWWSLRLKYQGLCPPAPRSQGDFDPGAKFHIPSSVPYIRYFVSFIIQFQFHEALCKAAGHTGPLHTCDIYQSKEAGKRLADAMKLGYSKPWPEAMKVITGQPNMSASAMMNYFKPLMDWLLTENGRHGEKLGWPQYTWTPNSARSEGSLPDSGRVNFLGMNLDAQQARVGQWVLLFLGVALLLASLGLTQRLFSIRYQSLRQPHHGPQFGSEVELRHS

[5] = biological target: T2, Cysteinyl leukotriene receptor 1 (Homo sapiens, UniProt Q9Y271); type: cell membranes, CHO-K1, Membrane; details: cho-k1; further: in other assays of this panel Not Active means under 50% inhibition at 10 µM
T2 sequence (Q9Y271 whole entry): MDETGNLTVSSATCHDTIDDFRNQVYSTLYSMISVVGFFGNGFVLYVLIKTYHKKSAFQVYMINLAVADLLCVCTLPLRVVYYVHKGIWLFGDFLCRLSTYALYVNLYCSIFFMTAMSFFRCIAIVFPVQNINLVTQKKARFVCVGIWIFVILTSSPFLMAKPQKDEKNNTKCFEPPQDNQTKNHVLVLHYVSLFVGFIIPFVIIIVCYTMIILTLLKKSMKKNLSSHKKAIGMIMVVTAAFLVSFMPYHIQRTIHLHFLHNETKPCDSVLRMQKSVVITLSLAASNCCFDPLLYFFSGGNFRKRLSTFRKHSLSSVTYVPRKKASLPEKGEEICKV

Histamine H2 receptor = Histamine H2 receptor (Homo sapiens, UniProt P25021); type: cell membranes, CHO-K1, Membrane; details: cho-k1; further: in other assays of this panel Not Active means under 50% inhibition at 10 µM
Histamine H2 receptor, sequence (P25021 whole entry): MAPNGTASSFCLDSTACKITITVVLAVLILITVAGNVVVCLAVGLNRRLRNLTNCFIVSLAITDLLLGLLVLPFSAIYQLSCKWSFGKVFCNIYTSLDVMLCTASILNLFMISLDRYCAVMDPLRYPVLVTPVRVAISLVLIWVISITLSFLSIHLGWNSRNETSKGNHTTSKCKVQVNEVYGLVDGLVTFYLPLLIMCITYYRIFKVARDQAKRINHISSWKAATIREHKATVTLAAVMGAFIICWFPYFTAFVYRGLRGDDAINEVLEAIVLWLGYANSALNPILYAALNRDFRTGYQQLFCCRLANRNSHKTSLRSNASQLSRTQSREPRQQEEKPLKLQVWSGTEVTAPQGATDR

[6] = DRUGMATRIX: GABAA, Muscimol, Central radioligand binding (ligand: [3H] Muscimol); type: cell membranes, Rattus norvegicus, Wistar, Brain, Membrane; details: Not Active = under 50% inhibition at 10 µM

5-hydroxytryptamine receptor 4, sequence (O70528 whole entry): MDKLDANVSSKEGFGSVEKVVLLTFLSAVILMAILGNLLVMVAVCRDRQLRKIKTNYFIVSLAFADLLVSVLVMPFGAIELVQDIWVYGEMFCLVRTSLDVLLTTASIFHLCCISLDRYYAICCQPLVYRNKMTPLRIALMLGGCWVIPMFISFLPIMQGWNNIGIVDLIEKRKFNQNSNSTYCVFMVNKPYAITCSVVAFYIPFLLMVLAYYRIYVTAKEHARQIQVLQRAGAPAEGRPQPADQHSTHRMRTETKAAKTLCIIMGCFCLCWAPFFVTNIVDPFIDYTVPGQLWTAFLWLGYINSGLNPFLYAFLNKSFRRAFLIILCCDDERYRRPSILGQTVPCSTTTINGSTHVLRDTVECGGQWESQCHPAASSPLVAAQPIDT

CO[C@@H]1[C@@H](OC)[C@H](C)[C@@](O)(CC(=O)O)O[C@H]1[C@H](C)[C@H]1O[C@@]2(CC[C@@](C)([C@H]3CC[C@@](C)([C@@H]4O[C@@H]([C@H]5O[C@](C)(O)[C@H](C)C[C@@H]5C)C[C@@H]4O[C@@H]4C[C@H](OC)[C@@H](OC)[C@H](C)O4)O3)O2)C[C@H](O)[C@H]1C.N [MADURAMICIN]
Not Active: IC50 [1] | IC50 [2] | Ki [2] | IC50 [3] | Ki [3] | IC50 [4] | IC50 [5] | IC50 (Histamine H2 receptor) | IC50 [6] | Ki [6]

CC(N)C12CC3CC(CC(C3)C1)C2 (stereo not given) [RIMANTADINE]
Not Active: IC50 [1] | IC50 [2] | Ki [2] | IC50 [3] | Ki [3] | IC50 [4] | IC50 [5] | IC50 (Histamine H2 receptor) | IC50 [6] | Ki [6]

CCN(CC)C(=S)SSC(=S)N(CC)CC
Not Active: IC50 [1] | IC50 [2] | Ki [2] | IC50 [3] | Ki [3] | IC50 [4] | IC50 [5] | IC50 (Histamine H2 receptor) | IC50 [6] | Ki [6]
